Assay results: US12187742B2 (XRAD Therapeutics, Inc., priority 2018, dated 2025)
Counter-ions that a name gives are not always drawn.

Biological target: ATM (Homo sapiens (Human), UniProt Q13315)
Test: ATM in Cell Western Assay (pKAP1 in etoposide-treated MCF-7 cells)
Type: cell-based
Conditions: MCF-7 cells, etoposide 100 μM, 1 hr, pKAP1 readout
Method: Assay of Compounds ATM and DNA-PK Inhibition
ATM in Cell Western Assay:
Next day, add corresponding concentration of compounds using pin tool (Echo 550), the final top concentration is 1 μM, 3-fold series dilution, total 10 doses. Then add etoposide (Sigma, #E1383) to a final concentration of 100 μM. Incubate at 37° C. for 1 hr. Fix cells by adding 25 μL of fixing solution (8% paraformaldehyde) for 20 minutes at ambient temperature. Permeabilize cells for 5 washes with 1×PBS (phosphate buffered saline) containing 0.1% Triton X-100; each wash is for 5 minutes. […] The next day, wash the plate 5 times with 1×PBST (1×PBS containing 0.1% Tween-20). […] Wash the cells for 5 times with 1×PBST (1×PBS containing 0.1% Tween-20) at ambient temperature, using gentle shaking in the dark. After the last wash
remove wash solution, turn plate upside down onto a thin paper towel and centrifuge at 1000 rpm for 1 min to absorb all wash buffer. Clean the bottom of plate with moist lint free paper. Scan plate immediately using ODYSSEY CLx (LI-COR) for the best results.

Chain of ATM (Q13315 whole entry): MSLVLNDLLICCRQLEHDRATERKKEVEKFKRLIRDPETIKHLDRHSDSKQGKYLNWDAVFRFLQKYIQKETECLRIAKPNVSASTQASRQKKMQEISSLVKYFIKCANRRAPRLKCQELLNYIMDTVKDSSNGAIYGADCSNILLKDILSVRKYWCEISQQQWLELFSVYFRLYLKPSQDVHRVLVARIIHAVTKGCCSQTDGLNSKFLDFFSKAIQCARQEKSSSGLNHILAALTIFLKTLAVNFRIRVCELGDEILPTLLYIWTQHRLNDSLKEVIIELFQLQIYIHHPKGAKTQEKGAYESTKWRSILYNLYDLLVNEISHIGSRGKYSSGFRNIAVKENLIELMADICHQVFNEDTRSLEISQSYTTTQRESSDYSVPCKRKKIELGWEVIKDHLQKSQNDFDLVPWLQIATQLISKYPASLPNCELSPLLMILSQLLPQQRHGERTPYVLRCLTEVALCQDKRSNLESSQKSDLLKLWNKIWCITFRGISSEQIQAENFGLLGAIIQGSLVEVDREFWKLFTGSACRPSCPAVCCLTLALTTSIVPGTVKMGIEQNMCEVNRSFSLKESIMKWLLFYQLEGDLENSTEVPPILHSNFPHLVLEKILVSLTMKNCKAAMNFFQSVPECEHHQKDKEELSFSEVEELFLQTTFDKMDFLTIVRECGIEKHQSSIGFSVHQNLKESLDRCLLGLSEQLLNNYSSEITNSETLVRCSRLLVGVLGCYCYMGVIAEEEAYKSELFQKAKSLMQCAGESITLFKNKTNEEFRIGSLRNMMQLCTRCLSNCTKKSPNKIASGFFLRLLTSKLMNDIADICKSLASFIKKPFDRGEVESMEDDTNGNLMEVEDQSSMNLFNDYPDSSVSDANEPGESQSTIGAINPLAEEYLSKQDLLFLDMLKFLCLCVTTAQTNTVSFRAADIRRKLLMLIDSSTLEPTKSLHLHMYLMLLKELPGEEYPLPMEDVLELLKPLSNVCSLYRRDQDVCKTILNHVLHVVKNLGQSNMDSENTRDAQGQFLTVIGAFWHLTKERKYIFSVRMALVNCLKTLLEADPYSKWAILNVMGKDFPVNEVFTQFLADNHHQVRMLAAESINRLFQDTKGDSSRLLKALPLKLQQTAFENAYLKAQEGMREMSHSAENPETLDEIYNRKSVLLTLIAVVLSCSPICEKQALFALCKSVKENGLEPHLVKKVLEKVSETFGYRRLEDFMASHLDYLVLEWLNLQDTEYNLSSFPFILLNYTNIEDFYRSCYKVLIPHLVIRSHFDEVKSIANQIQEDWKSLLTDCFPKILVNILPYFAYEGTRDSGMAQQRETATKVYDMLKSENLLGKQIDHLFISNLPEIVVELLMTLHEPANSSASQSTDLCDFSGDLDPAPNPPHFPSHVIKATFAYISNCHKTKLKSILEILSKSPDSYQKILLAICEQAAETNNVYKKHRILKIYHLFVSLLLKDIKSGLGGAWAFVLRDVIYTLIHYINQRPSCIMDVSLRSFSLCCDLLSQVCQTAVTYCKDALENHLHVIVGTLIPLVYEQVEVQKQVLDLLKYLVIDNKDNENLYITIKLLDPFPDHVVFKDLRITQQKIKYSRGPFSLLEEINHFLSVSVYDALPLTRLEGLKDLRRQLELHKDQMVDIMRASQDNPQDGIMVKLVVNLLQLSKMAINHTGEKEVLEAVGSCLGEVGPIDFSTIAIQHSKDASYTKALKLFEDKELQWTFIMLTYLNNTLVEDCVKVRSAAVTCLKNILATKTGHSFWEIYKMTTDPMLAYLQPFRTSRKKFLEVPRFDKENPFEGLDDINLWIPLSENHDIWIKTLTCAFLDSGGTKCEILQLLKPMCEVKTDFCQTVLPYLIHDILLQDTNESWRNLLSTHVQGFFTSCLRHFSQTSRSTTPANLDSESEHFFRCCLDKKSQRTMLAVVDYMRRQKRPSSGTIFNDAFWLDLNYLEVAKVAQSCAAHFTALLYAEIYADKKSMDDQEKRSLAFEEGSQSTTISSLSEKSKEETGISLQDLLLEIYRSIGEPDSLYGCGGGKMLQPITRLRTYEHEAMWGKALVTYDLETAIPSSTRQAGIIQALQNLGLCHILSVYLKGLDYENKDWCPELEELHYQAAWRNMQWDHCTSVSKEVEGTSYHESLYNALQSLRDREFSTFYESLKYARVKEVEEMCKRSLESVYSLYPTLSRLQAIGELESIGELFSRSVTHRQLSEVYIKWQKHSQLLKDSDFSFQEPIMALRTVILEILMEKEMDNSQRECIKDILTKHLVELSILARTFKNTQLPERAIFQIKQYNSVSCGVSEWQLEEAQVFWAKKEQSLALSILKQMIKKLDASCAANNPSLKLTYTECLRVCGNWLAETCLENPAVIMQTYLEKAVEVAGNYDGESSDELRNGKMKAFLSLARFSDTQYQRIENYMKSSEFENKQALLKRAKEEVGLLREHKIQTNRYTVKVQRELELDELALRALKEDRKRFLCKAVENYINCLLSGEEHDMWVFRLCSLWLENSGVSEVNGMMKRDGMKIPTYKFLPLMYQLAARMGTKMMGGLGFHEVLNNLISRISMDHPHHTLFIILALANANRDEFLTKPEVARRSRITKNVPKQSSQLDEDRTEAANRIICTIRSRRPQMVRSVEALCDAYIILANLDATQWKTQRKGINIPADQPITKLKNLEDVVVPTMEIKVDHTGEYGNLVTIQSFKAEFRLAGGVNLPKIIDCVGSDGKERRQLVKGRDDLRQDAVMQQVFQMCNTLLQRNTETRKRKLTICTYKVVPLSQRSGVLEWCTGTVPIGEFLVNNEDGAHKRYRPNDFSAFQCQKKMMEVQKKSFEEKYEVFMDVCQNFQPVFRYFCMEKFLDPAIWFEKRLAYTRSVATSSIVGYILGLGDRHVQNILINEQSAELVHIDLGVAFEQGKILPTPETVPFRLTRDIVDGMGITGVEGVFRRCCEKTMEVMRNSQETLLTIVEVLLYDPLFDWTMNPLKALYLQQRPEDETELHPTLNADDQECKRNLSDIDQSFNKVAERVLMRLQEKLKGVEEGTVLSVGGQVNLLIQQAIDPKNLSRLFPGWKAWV

IC50 [µM] | Structure (SMILES)
0.001 to 0.1 | CN(C)CCCOc1ncc(-c2ccc3ncc4c(c3c2)C2(CCC2)C(=O)N4C)cc1NS(=O)(=O)c1cncc(C#N)c1 [Example 174, 5-Cyano-N-(2-(3-(dimethylamino)propoxy)-5-(3′-methyl-2′-oxo-2′,3′-dihydrospiro[cyclobulane-1,1′-pyrrolo[2,3-c]quinolin]-8′-yl)pyridin-3-yl)pyridine-3-sulfonamide hydrochloride]
0.001 to 0.1 | CN(C)CCCOc1ncc(-c2ccc3ncc4c(c3c2)C2(CC(=O)C2)C(=O)N4C)cc1NS(C)(=O)=O [Example 258, N-(2-(3-(Dimethylamino)propoxy)-5-(3′-methyl-2′,3′-dioxo-2′,3′-dihydrospiro [cyclobutane-1,1′-pyrrolo[2,3-c]quinolin]-8′-yl)pyridin-3-yl)methanesulfonamide]
> 0.1 | CN1C(=O)C2(CC2)c2c1cnc1ccc(-c3ccc4nccnc4c3)cc21 [Example 39, 3′-Methyl-8′-(quinoxalin-6-yl)spiro[cyclopropane-1,1′-pyrrolo[2,3-c]quinolin]-2′(3′-H)-one]
> 0.1 | COc1ncc(-c2ccc3ncc4c(c3c2)C2(CC2)C(=O)N4C)cc1S(=O)(=O)c1ccccc1 [Example 36]
> 0.1 | CN(C)CCCOc1ncc(-c2ccc3ncc4c(c3c2)C2(CC2)C(=O)N4C)cc1C(N)=O [Example 52, 2-(3-(Dimethylamino)propoxy)-5-(3′-methyl-2′-oxo-2′,3′-dihydrospiro[cyclopropane-1,1′-pyrrolo[2,3-c]quinolin]-8′-yl)nicotinamide]
0.001 to 0.1 | CN(C)CCCOc1ncc(-c2ccc3ncc4c(c3c2)C2(CCC2)C(=O)N4C)cc1S(=O)(=O)N(C)C [Example 234, 2-(3-(Dimethylamino)propoxy)-N,N-dimethyl-5-(3′-methyl-2′-oxo-2′,3′-dihydrospiro[cyclobutane-1,1′-pyrrolo[2,3-c]quinolin]-8′-yl)pyridine-3-sulfonamide]
> 0.1 | CN1C(=O)C2(CCC2)c2c1cnc1ccc(-c3cnc(OCC4CNC4)c(NS(C)(=O)=O)c3)cc21 [Example 310, N-(2-(Azetidin-3-ylmethoxy)-5-(3′-methyl-2′-oxo-2′,3′-dihydrospiro[cyclobutane-1,1′-pyrrole[2,3-c]quinolin]-8′-yl)pyridin-3-yl) methanesulfonamide hydrochloride]
> 0.1 | CN1C(=O)C2(CC2)c2c1cnc1ccc(-c3cnc4ccccc4c3)cc21 [Example 20, 3′-Methyl-8′-(quinolin-3-yl)spiro[cyclopropane-1,1′-pyrrolo[2,3-c]quinolin]-2′(3′-H)-one]
> 0.1 | CN(C)CCCOc1ncc(-c2ccc3ncc4c(c3c2)C2(CCCC2)C(=O)N4C)cc1NC(=O)c1ccccc1 [Example 7]
> 0.1 | CN1C(=O)C2(CC2)c2c1cnc1ccc(-c3cncnc3)cc21 [Example 51, 3′-Methyl-8′-(pyrimidin-5-yl)spiro[cyclopropane-1,1′-pyrrolo [2,3-c]quinolin]-2′(3′-H)-one]
> 0.1 | CN1C(=O)C2(CCC2)c2c1cnc1ccc(-c3cnc(N4CCS(=O)(=O)CC4)c(NS(=O)(=O)c4ccccc4)c3)cc21 [Example 135, N-(2-(1,1-Dioxidothiomorpholino)-5-(3′-methyl-2′-oxo-2′,3′-dihydrospiro[cyclobulane-1,1′-pyrrolo[2,3-c]quinolin]-8′-yl)pyridin-3-yl)benzenesulfonamide hydrochloride]

Same assay, conditions: pKAP1 in etoposide-treated MCF-7 cells

Structure (SMILES) | IC50 [µM]
CNC(=O)c1cc(-c2ccc3ncc4c(c3c2)C2(CCC2)C(=O)N4C)cc(NS(C)(=O)=O)c1OCCCN(C)C [Example 565, 2-(3-(Dimethylamino)propoxy)-N-methyl-5-(3′-methyl-2′-oxo-2′,3′-dihydrospiro[cyclobutane-1,1′-pyrrolo[2,3-c]quinolin]-8′-yl)-3-(methylsulfonamido)benzamide] | > 0.1
CNS(=O)(=O)Nc1cc(-c2cc3c4c(cnc3cc2F)N(C)C(=O)C42CCC2)cnc1N1CC(N(C)C)C1 [Example 340, 8′-{6-[3-(Dimethylamino)azetidin-1-yl]-5-[(methylsulfamoyl)amino]pyridin-3-yl}-7′-fluoro-3′-methyl-2′,3′-dihydrospiro[cyclobutane-1,1′-pyrrolo[2,3-c]quinoline]-2′-one] | 0.001 to 0.1
CN1C(=O)C2(CCC2)c2c1cnc1cc(F)c(-c3cnc(OCCNCCF)c(NS(C)(=O)=O)c3)cc21 [Example 380, N-(5-(7′-Fluoro-3′-methyl-2′-oxo-2′,3′-dihydrospiro [cyclobutane-1,1′-pyrrolo[2.3-c]quinolin]-8′-yl)-2-(2-((2-fluoroethyl)amino)ethoxy)pyridin-3-yl) methanesulfonamide hydrochloride] | 0.001 to 0.1
COC(=O)c1cc(-c2ccc3ncc4c(c3c2)C2(CCC2)C(=O)N4C)cc(NS(C)(=O)=O)c1OCCCN(C)C [Example 559, Methyl 2-(3-(dimethylamino)propoxy)-5-(3′-methyl-2′-oxo-2′,3′-dihydrospiro[cyclobutane-1,1′-pyrrolo[2,3-c]quinolin]-8′-yl)-3-(methylsulfonamido)benzoate] | > 0.1
CN1C(=O)C2(CCC2)c2c1cnc1ccc(-c3cnc(N4CCC(C)(N5CCCCC5)CC4)c(NS(C)(=O)=O)c3)cc21 [Example 354, N-(5-(3′-Methyl-2′-oxo-2′,3′-dihydrospiro[cyclobutane-1,1′-pyrrolo[2,3-c]quinolin]-8′-yl)-2-(4′-methyl-[l,4′-bipiperidin]-1′-yl)pyridin-3-yl)methanesulfonamide] | > 0.1
CN(C)c1ncc(-c2cc3c4c(cnc3cc2F)N(C)C(=O)C42CCC2)cn1 [Example 364, 8′-(2-(Dimethylamino)pyrimidin-5-yl)-7′-fluoro-3′-methylspiro[cyclobutane-1,1′-pyrrolo[2,3-c]quinolin]-2′(3′-H)-one] | > 0.1

Continued, values first:

IC50 [µM] | Structure (SMILES)
> 0.1 | CC(C)NCCOc1ncc(-c2cc3c4c(cnc3cc2F)N(C)C(=O)C42CN(C(=O)N(C)C)C2)cc1NS(C)(=O)=O [Example 518, 7′-Fluoro-8′-(6-(2-(isopropylamino)ethoxy)-5-(methylsulfonamido)pyridin-3-yl)-N,N,3′-trimethyl-2′-oxo-2′,3′-dihydrospiro[azetidine-3,1′-pyrrolo[2,3-c]quinoline]-1-carboxamide]
> 0.1 | CC(C)NCCOc1ncc(-c2cc3c4c(cnc3cc2F)N(C)C(=O)C42CN(c3cncnc3)C2)cc1NS(C)(=O)=O [Example 549, N-(5-(7′-Fluoro-3′-methyl-2′-oxo-1-(pyrimidin-5-yl)-2′,3′-dihydrospiro[azetidine-3,1′-pyrrolo[2,3-c]quinolin]-8′-yl)-2-(2-(isopropylamino)ethoxy)pyridin-3-yl)methanesulfonamide]
0.001 to 0.1 | CN[C@H]1C[C@@]2(C1)C(=O)N(C)c1cnc3cc(F)c(-c4cnc(OCCNC(C)C)c(NS(C)(=O)=O)c4)cc3c12 [Example 473, trans-N-(5-(7′-Fluoro-3′-methyl-3-(methylamino)-2′-oxo-2′,3′-dihydrospiro[cyclobutane-1,1′-pyrrolo[2,3-c]quinolin]-8′-yl)-2-(2-(isopropylamino)ethoxy)pyridin-3-yl)methanesulfonamide]
0.001 to 0.1 | COc1ccc(N2CC3(C2)C(=O)N(C)c2cnc4cc(F)c(-c5cnc(OCCNC(C)C)c(NS(C)(=O)=O)c5)cc4c23)cc1OC [Example 546, N-(5-(1-(3,4-Dimethoxyphenyl)-7′-fluoro-3′-methyl-2′-oxo-2′,3′-dihydrospiro[azetidine-3,1′-pyrrolo[2,3-c]quinolin]-8′-yl)-2-(2-(isopropylamino)ethoxy)pyridin-3-yl)methanesulfonamide]
0.001 to 0.1 | CCO[C@H]1C[C@@]2(C1)C(=O)N(C)c1cnc3cc(F)c(-c4cnc(OCCNC(C)C)c(NS(C)(=O)=O)c4)cc3c12 [Example 394, trans-N-(5-(3-Ethoxy-7′-fluoro-3′-methyl-2′-oxo-2′,3′-dihydrospiro[cyclobutane-1,1′-pyrrolo[2,3-c]quinolin]-8′-yl)-2-(2-(isopropylamino)ethoxy)pyridin-3-yl)methanesulfonamide]
0.001 to 0.1 | CC(C)NCCOc1ncc(-c2cc3c(cc2F)ncc2c3[C@]3(C[C@@H](O)C3)C(=O)N2C)cc1NS(C)(=O)=O [Example 382, trans-N-(5-(7′-Fluoro-3-hydroxy-3′-methyl-2′-oxo-2′,3′-dihydrospiro[cyclobutane-1,1′-pyrrolo[2,3-c]quinolin]-8′-yl)-2-(2-(isopropylamino)ethoxy)pyridin-3-yl)methanesulfonamide]
0.001 to 0.1 | CC(C)NCCOc1ncc(-c2cc3c(cc2F)ncc2c3[C@]3(C[C@H](c4ccc(F)cc4)C3)C(=O)N2C)cc1NS(C)(=O)=O [Example 422, cis-N-(5-(7′-Fluoro-3-(4-fluorophenyl)-3′-methyl-2′-oxo-2′,3′-dihydrospiro[cyclobutane-1,1′-pyrrolo[2,3-c]quinolin]-8′-yl)-2-(2-(isopropylamino)ethoxy)pyridin-3-yl)methanesulfonamide]
> 0.1 | CC(C)NCCOc1ncc(-c2cc3c4c(cnc3cc2F)N(C)C(=O)C42CN(c3ccncc3)C2)cc1NS(C)(=O)=O [Example 547, N-(5-(7′-Fluoro-3′-methyl-2′-oxo-1-(pyridin-4-yl)-2′,3′-dihydrospiro [azetidine-3,1′-pyrrolo[2,3-c]quinolin]-8′-yl)-2-(2-(isopropylamino)ethoxy)pyridin-3-yl)methanesulfonamide]
